For 14 compounds, ED50 results are on record in EP0659751A1, “Optically active azole derivatives, their production and use” (TAKEDA CHEMICAL INDUSTRIES, LTD., priority 1993, dated 1995).

Usually ED50 stands for the dose at which the effect has come halfway, by size or by number of responders. A low value points to greater potency.

Bounds are passed on as bounds.

The test system of this test is Candida albicans TA. The test can be described thus: protective effect against experimental infection in mice. It counts as in vivo, Crj:CDF₁ mice. The following applies: po, 168 h; mice inoculated i.v. with minimum lethal dose of Candida albicans TA; suspension in 0.5% CMC administered orally once immediately after infection; Reed and Muench method from survival rate 7 days after infection. The procedure:
The protective effects of the compound of the present invention against the experimental infection in mice are shown in the following Table 1. Test Method: Five-week-old Crj:CDF₁ mice were inoculated with the minimum lethal dose of Candida albicans TA intravenously. The test compound was suspended in a solution of 0.5% sodium carboxymethylcellulose (CMC). The suspension was administered orally once immediately after infection. The activity was expressed in terms of ED₅₀ values calculated by the Reed and Muench method from the survival rate 7 days after infection.
`C[C@@H](n1ncn(-c2ccc(N3CCN(c4ccc(OC(F)(F)C(F)F)cc4)CC3)cc2)c1=O)[C@](O)(Cn1cncn1)c1ccc(F)cc1F` [Example 15, 2-[(1R,2R)-2-(2,4-difluorophenyl)-2-hydroxy-1-methyl-3-(1H-1,2,4-triazol-1-yl)propyl]-4-[4-[4-[4-(1,1,2,2-tetrafluoroethoxy)phenyl]-1-piperazinyl]phenyl]-3(2H,4H)-1,2,4-triazolone] came in with an ED50 of 2.8 mg/kg. For `C[C@@H](n1ncn(-c2ccc(OCC(F)(F)C(F)F)cc2)c1=O)[C@](O)(Cn1cncn1)c1ccccc1F` [Example 16, 2-[(1R,2R)-2-(2-fluorophenyl)-2-hydroxy-1-methyl-3-(1H-1,2,4-triazol-1-yl)propyl]-4-[4-(2,2,3,3-tetrafluoropropoxy)phenyl]-3(2H,4H)-1,2,4-triazolone], it took a dose of 0.25 mg/kg to reach the 50% effect level (ED50). Then `C[C@@H](n1ncn(-c2ccc(C(F)(F)F)cc2)c1=O)[C@](O)(Cn1cncn1)c1ccccc1F` [Example 17, 2-[(1R,2R)-2-(2-fluorophenyl)-2-hydroxy-1-methyl-3-(1H-1,2,4-triazol-1-yl)propyl]-4-(4-trifluoromethylphenyl)-3(2H,4H)-1,2,4-triazolone], with 0.22 mg/kg; and `C[C@@H](n1ncn(-c2ccc(OC(F)(F)F)cc2)c1=O)[C@](O)(Cn1cncn1)c1ccccc1F` [Example 18, 2-[(1R,2R)-2-(2-fluorophenyl)-2-hydroxy-1-methyl-3-(1H-1,2,4-triazol-1-yl)propyl]-4-(4-trifluoromethoxyphenyl)-3(2H,4H)-1,2,4-triazolone], with 0.18 mg/kg; and `C[C@@H](n1ncn(-c2ccc(OCC(F)(F)F)cc2)c1=O)[C@](O)(Cn1cncn1)c1ccccc1F` [Example 19, 2-[(1R,2R)-2-(2-fluorophenyl)-2-hydroxy-1-methyl-3-(1H-1,2,4-triazol-1-yl)propyl]-4-[4-(2,2,2-trifluoroethoxy)phenyl]-3(2H,4H)-1,2,4-triazolone], with 0.18 mg/kg. In turn, `C[C@@H](n1ncn(-c2ccc(OC(F)(F)C(F)F)cc2)c1=O)[C@](O)(Cn1cncn1)c1ccccc1F` [Example 20, 2-[(1R,2R)-2-(2-fluorophenyl)-2-hydroxy-1-methyl-3-(1H-1,2,4-triazol-1-yl)propyl]-4-[4-(1,1,2,2-tetrafluoroethoxy)phenyl]-3(2H,4H)-1,2,4-triazolone] had an ED50 of 0.18 mg/kg.

In turn, `Cc1nn([C@H](C)[C@](O)(Cn2cncn2)c2ccccc2F)c(=O)n1-c1ccc(OC(F)(F)C(F)F)cc1` [Example 21, 2-[(1R,2R)-2-(2-fluorophenyl)-2-hydroxy-1-methyl-3-(1H-1,2,4-triazol-1-yl)propyl]-5-methyl-4-[4-(1,1,2,2-tetrafluoroethoxy)phenyl]-3(2H,4H)-1,2,4-triazolone] yielded an ED50 of 0.21 mg/kg. In turn, `C[C@@H](n1cnn(-c2ccc(OC(F)(F)C(F)F)cc2)c1=O)[C@](O)(Cn1cncn1)c1ccccc1F` [Example 22, 4-[(1R,2R)-2-(2-fluorophenyl)-2-hydroxy-1-methyl-3-(1H-1,2,4-triazol-1-yl)propyl]-2-[4-(1,1,2,2-tetrafluoroethoxy)phenyl]-3(2H,4H)-1,2,4-triazolone] displayed an ED50 of less than 0.13 mg/kg. Compound `C[C@@H](n1cnn(-c2ccc(OCC(F)(F)C(F)F)cc2)c1=O)[C@](O)(Cn1cncn1)c1ccccc1F` [Example 23, 4-[(1R,2R)-2-(2-fluorophenyl)-2-hydroxy-1-methyl-3-(1H-1,2,4-triazol-1-yl)propyl]-2-[4-(2,2,3,3-tetrafluoropropoxy)phenyl]-3(2H,4H)-1,2,4-triazolone] registered an ED50 of 0.16 mg/kg. The value for `C[C@@H](n1ncn(-c2ccc(OC(F)(F)C(F)F)cc2)c1=O)[C@](O)(Cn1cncn1)c1ccc(F)cc1` [Example 25, 2-[(1R,2R)-2-(4-fluorophenyl)-2-hydroxy-1-methyl-3-(1H-1,2,4-triazol-1-yl)propyl]-4-[4-(1,1,2,2-tetrafluoroethoxy)phenyl]-3(2H,4H)-1,2,4-triazolone] was 0.65 mg/kg; that for `Cc1nn([C@H](C)[C@](O)(Cn2cncn2)c2ccc(F)cc2)c(=O)n1-c1ccc(OC(F)(F)C(F)F)cc1` [Example 26, 2-[(1R,2R)-2-(4-fluorophenyl)-2-hydroxy-1-methyl-3-(1H-1,2,4-triazol-1-yl)propyl]-5-methyl-4-[4-(1,1,2,2-tetrafluoroethoxy)phenyl]-3(2H,4H)-1,2,4-triazolone] was 0.35 mg/kg. The value for `C[C@@H](n1cnn(-c2ccc(OC(F)(F)C(F)F)cc2)c1=O)[C@](O)(Cn1cncn1)c1ccc(F)cc1` [Example 27, 4-[(1R,2R)-2-(4-fluorophenyl)-2-hydroxy-1-methyl-3-(1H-1,2,4-triazol-1-yl)propyl]-2-[4-(1,1,2,2-tetrafluoroethoxy)phenyl]-3(2H,4H)-1,2,4-triazolone] was 0.56 mg/kg. Then `C[C@@H](n1cnn(-c2ccc(OCC(F)(F)C(F)F)cc2)c1=O)[C@](O)(Cn1cncn1)c1ccc(F)cc1` [Example 28, 4-[(1R,2R)-2-(4-fluorophenyl)-2-hydroxy-1-methyl-3-(1H-1,2,4-triazol-1-yl)propyl]-2-[4-(2,2,3,3-tetrafluoropropoxy)phenyl]-3(2H,4H)-1,2,4-triazolone], with 0.71 mg/kg. For `Cc1nn(-c2ccc(OC(F)(F)C(F)F)cc2)c(=O)n1[C@H](C)[C@](O)(Cn1cncn1)c1ccc(F)cc1F` [Example 29, 4-[(1R,2R)-2-(2,4-difluorophenyl)-2-hydroxy-1-methyl-3-(1H-1,2,4-triazol-1-yl)propyl]-5-methyl-2-[4-(1,1,2,2-tetrafluoroethoxy)phenyl]-3(2H,4H)-1,2,4-triazolone], the ED50 came out at 2 mg/kg.
